What was measured:
[1] = concentration of aqueous solutions of ammonium glyphosate salt at room temperature; format: physicochemical; conditions: water
Excerpt: Wherein m is a positive integer from 1 to 3, the ammonium cation may link to the hydroxyl which is bonded with a carbonyl or a phosphoryl. As for the single molecule, m equals 1-3. The generally used ammonium glyphosate salt is a mono-ammonium salt, namely, m equals 1. However, it may not be deemed simply that the ammonium glyphosate salt obtained in practical production has m just equal to a positive integer, but a value in the range of 0.8-1.3. These substances have very high solubility in water and the concentration of their aqueous solutions may be more than 20% at room temperature. However, they have very low solubility in such organic solvents that are completely miscible with any proportion of water or have a relatively high solubility in water. Thus, after the reaction is ended, such organic solvent(s) is(are) added to the reaction solution to form a homogeneous solution with water in the system, thereby substantially decreasing the solubility of the ammonium glyphosate salt therein and crystallizing the salt out. Such solvents may include, or may be, alcohols and acetals, etc. or a mixture of two or more solvents. The alcohols may include monobase alcohols having 1-4 carbon atoms. It is preferred to use methanol, ethanol, propanol, butanol and methylal in terms of cost effective, which can be used alone or as a mixture of thereof. […]

[2] = saturation concentrations of ammonium glyphosate in different aqueous methanol solutions; format: physicochemical; conditions: 30° C.
Excerpt: The amount of gaseous ammonia introduced is 1.01-1.5 times by mole as that of glyphosate added. When the ammonia is not enough, the reaction will not be carried out completely to cause the product having relatively more glyphosate, and thus a part of the water-soluble solid ammonium glyphosate may not be dissolved due to very low the solubility of glyphosate in water. If the ammonia is introduced in excess, relatively more free ammonia will remain in the system, thereby the ammonia will escape in subsequent processes to result in the environmental pollution. A relatively simple method for judging the end point of the reaction is to measure the pH of the reaction system. The inventor believes that the pH should be kept at 5-8. The solubility of ammonium glyphosate varies with the concentration of the aqueous methanol solution, the higher the concentration of aqueous methanol solution is, the lower the solubility of ammonium glyphosate is. The saturation concentrations of ammonium glyphosate in different concentrations of the aqueous methanol solution at 30° C. are listed in Table 1.

[3] = 25° C.; cited from earlier work

SMILES	concentration of aqueous solution [1]	Saturation concentration (w/w) % ([2]; content of methanol 5 (w/w) %, aqueous methanol solution)	Saturation concentration (w/w) % ([2]; content of methanol 20 (w/w) %, aqueous methanol solution)	Saturation concentration (w/w) % ([2]; content of methanol 40 (w/w) %, aqueous methanol solution)	Saturation concentration (w/w) % ([2]; content of methanol 60 (w/w) %, aqueous methanol solution)	Saturation concentration (w/w) % ([2]; content of methanol 80 (w/w) %, aqueous methanol solution)	Saturation concentration (w/w) % ([2]; content of methanol 100 (w/w) %)	solubility of glyphosate in water [3]
N.O=C(O)CNCP(=O)(O)O [ammonium glyphosate]	more than 20%	18.2 (w/w) %	8.9 (w/w) %	4.3 (w/w) %	1.5 (w/w) %	0.9 (w/w) %	0.6 (w/w) %	
O=C(O)CNCP(=O)(O)O [glyphosate, N-phosphonomethyl glycine]								1.2 g per 100 g water

From patent US7435847B2, “Preparation of solid ammonium glyphosate using organic solvent in extraction” (priority 2002, dated 2008)
